Assay results taken from US20220142995A1, “DUAL ATM AND DNA-PK INHIBITORS FOR USE IN ANTI-TUMOR THERAPY” (XRAD Therapeutics, Inc., priority 2019, published 2022).

Tested on: FADU subcutaneous human xenograft
Assay: In vivo tumor growth delay study, FADU subcutaneous human xenograft mouse model
Excerpt: Tumor Studies. Female NCr nu/nu mice (Crl:NU(NCr)-Foxn1 nu, Strain 490) were obtained from Charles River at 5-6 weeks of age. All animal procedures used in these studies were approved by the Institutional Animal Care and Use Committee (IACUC) at Duke University.
FADU or MDA-MB-231 cells were harvested during log phase growth for in vivo implantation. The resuspended cells were washed three times in phosphate buffered saline (PBS) before preparing the working dilution in PBS. FADU cells were diluted to 1×10^7 cells/mL and MDA-MB-231 cells were diluted to 5×10^7 cells/mL. Each mouse was injected subcutaneously in the right flank with 100 μL of the cellular suspension. Tumor growth was monitored until the tumors reached a target volume of at least 100 mm^3, at which point mice were randomly stratified into four treatment groups.
Following implantation of the tumor cell lines, mice were monitored once weekly for tumor development. Upon detection, tumors were measured in two dimensions using digital calipers. Tumors were treated after reaching at least 100 mm^3 and were measured two to three times weekly following enrollment in one of the treatment groups. The study endpoint was defined as tumor quintupling from the volume at time of treatment.
The vehicle used in this study was 0.5% (Hydroxypropyl)methyl cellulose (HPMC) and 0.2% Tween80 dissolved in deionized water. The pH of the vehicle was adjusted to 7.0-8.0 and the vehicle was stored at 4° C. […]
In vivo tumor growth delay study was performed as follows. Following implantation of the tumor cell lines, mice were monitored once weekly for tumor development. […]
Statistical and Graphical Analysis of the in vivo data. […] In order to adjust for the differing tumor sizes at the start of treatment, the relative tumor volume was calculated by dividing the tumor volume at each time point by the volume at baseline. […] When an animal exited the study due to tumor quintupling, the final tumor volume recorded for the animal was included with the data used to calculate the median volume at subsequent time points. […]

Structure (SMILES): CC(C)NCCOc1ncc(-c2cc3c4c(cnc3cc2F)N(C)C(=O)C42CCC2)cc1NS(C)(=O)=O [Compound 569, N-(5-(7′-Fluoro-3′-methyl-2′-oxo-2′,3′-dihydrospiro[cyclobutane-1,1′-pyrrolo[2,3-c]quinolin]-8′-yl)-2-(2-(isopropylamino)ethoxy)pyridin-3-yl)methanesulfonamide]
- tumor growth curves and quintupling-free survival (FADU, Group 2 (10 mg/kg qd×3 alone) versus Group 1 (vehicle)): nearly identical to those for Group 1
- overall survival compared to Group 1, Group 2 and Group 3 (FADU, Group 4: 10 mg/kg + 3 Gy qd×3, P<0.01, logrank): significantly improved
- tolerability (FADU-bearing mice, 10 mg/kg qd×3 alone or with 3 Gy): well-tolerated
